Measured values reported in patent US11542240B2, “STK19 inhibitors for treatment of cancer” (TRUSTEES OF BOSTON UNIVERSITY, priority 2018, dated 2023).
Where two headings read alike, the source gives them in different places.

Columns and labels:
Test in all cases: biochemical
Assay type in all cases: binding
[1] = molecular target: panel of 468 diverse kinases (Homo sapiens, UniProt O14936); settings: CASK; 1000 nM; read-out: Percent Control
[2] = molecular target: panel of 468 diverse kinases (Homo sapiens, UniProt O75385); settings: ULK1; 1000 nM; read-out: Percent Control
[3] = molecular target: panel of 468 diverse kinases (Homo sapiens, UniProt O75676); settings: 1000 nM, read-out: Percent Control
[4] = molecular target: panel of 468 diverse kinases (Homo sapiens, UniProt P04049); settings: RAF1; 1000 nM; read-out: Percent Control
[5] = molecular target: panel of 468 diverse kinases (Homo sapiens, UniProt P07949, V804M); settings: RET(V804M); 1000 nM; read-out: Percent Control
panel of 468 diverse kinases (Homo sapiens, UniProt P07949, V804M), sequence (P07949 29-1114 V804M limits assumed): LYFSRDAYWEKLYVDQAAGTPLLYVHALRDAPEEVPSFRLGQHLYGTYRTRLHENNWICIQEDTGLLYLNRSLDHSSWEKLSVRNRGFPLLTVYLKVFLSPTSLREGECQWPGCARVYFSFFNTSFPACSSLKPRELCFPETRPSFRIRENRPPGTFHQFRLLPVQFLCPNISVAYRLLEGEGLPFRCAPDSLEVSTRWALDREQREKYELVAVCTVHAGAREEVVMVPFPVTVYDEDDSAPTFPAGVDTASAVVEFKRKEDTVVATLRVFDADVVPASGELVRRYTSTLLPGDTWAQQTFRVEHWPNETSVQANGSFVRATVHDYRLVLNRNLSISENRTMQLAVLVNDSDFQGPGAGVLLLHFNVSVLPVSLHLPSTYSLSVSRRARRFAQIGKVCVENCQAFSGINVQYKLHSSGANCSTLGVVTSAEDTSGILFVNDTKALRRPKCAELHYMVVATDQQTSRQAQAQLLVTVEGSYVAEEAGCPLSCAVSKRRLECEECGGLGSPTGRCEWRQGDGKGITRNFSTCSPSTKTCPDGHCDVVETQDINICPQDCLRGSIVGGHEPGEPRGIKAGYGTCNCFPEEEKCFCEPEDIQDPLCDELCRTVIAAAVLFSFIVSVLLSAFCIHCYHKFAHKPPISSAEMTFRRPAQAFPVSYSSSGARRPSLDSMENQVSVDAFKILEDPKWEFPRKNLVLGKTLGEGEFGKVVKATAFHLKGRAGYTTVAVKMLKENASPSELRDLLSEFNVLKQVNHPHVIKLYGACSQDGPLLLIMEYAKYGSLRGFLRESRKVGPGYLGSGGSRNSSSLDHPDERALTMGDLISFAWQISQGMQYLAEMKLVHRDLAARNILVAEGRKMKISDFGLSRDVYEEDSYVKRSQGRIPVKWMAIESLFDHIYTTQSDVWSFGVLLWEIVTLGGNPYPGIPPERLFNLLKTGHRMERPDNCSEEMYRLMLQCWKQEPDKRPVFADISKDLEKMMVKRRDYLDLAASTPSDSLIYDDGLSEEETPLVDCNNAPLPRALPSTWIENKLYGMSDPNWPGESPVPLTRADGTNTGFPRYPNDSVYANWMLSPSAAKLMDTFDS

[6] = molecular target: panel of 468 diverse kinases (Homo sapiens, UniProt P08069); settings: IGF1R; 1000 nM; read-out: Percent Control
panel of 468 diverse kinases (Homo sapiens, UniProt P08069), sequence (P08069 31-736 limits assumed): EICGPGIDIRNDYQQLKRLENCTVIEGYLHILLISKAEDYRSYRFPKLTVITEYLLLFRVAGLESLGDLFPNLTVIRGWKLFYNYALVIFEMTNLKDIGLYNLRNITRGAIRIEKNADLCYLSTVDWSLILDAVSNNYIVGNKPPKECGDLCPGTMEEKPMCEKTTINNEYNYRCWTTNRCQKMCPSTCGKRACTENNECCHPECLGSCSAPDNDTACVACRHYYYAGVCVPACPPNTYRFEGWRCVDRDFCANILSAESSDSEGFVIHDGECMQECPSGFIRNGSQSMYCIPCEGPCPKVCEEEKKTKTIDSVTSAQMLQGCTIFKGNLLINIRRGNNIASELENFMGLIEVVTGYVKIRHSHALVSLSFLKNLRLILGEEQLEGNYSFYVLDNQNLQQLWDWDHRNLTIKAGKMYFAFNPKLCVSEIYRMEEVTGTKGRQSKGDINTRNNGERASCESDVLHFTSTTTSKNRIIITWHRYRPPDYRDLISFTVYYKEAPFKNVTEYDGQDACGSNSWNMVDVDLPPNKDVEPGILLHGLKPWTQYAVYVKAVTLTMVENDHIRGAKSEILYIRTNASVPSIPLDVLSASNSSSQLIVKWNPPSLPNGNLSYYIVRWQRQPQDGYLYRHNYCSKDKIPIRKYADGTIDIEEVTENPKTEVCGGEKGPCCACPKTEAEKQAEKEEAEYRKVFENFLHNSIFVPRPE
panel of 468 diverse kinases (Homo sapiens, UniProt P08069), sequence (P08069 741-1367 limits assumed): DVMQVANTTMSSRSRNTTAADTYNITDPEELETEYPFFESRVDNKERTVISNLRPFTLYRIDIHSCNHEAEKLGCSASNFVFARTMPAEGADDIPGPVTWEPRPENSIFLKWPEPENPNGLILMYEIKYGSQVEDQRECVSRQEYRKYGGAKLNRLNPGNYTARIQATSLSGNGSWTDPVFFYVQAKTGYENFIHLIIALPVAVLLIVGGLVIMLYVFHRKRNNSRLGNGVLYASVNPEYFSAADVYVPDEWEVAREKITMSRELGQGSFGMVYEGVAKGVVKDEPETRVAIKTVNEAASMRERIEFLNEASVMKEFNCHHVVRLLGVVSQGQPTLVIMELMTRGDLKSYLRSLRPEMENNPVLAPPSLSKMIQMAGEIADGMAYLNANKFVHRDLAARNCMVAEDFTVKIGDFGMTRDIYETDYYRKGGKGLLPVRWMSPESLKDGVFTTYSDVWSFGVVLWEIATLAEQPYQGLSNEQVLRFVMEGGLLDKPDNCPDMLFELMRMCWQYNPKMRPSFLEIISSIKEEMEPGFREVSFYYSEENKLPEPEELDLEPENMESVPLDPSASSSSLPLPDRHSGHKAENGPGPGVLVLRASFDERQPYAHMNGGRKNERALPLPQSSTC

[7] = molecular target: panel of 468 diverse kinases (Homo sapiens, UniProt P0C1S8); settings: WEE2; 1000 nM; read-out: Percent Control
[8] = molecular target: panel of 468 diverse kinases (Homo sapiens, UniProt P10721); settings: 1000 nM, read-out: Percent Control
panel of 468 diverse kinases (Homo sapiens, UniProt P10721), sequence (P10721 26-976 limits assumed): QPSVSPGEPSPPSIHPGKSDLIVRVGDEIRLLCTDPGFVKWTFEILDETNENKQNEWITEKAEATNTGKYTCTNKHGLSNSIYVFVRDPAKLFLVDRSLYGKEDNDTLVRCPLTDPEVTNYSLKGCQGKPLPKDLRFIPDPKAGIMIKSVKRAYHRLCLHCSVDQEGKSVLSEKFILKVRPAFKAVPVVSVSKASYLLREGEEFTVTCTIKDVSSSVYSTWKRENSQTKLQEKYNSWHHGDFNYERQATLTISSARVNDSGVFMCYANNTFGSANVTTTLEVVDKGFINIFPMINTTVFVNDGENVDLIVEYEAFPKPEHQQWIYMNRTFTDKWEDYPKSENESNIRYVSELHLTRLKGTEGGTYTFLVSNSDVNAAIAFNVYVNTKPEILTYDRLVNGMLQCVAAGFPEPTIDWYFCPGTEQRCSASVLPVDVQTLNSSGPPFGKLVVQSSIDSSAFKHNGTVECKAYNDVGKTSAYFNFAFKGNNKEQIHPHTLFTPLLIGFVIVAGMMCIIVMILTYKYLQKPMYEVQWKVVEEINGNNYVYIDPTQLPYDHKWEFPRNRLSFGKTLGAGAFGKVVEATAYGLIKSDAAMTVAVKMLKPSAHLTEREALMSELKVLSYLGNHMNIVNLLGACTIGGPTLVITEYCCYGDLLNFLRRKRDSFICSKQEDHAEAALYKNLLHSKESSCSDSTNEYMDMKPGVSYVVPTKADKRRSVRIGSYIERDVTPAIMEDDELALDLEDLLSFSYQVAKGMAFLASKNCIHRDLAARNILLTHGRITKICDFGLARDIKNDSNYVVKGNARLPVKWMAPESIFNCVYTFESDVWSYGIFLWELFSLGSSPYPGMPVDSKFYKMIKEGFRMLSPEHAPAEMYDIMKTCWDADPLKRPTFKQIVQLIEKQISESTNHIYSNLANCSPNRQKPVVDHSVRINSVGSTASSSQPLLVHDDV

[9] = molecular target: panel of 468 diverse kinases (Homo sapiens, UniProt P11362); settings: FGFR1; 1000 nM; read-out: Percent Control
panel of 468 diverse kinases (Homo sapiens, UniProt P11362), sequence (P11362 22-822 limits assumed): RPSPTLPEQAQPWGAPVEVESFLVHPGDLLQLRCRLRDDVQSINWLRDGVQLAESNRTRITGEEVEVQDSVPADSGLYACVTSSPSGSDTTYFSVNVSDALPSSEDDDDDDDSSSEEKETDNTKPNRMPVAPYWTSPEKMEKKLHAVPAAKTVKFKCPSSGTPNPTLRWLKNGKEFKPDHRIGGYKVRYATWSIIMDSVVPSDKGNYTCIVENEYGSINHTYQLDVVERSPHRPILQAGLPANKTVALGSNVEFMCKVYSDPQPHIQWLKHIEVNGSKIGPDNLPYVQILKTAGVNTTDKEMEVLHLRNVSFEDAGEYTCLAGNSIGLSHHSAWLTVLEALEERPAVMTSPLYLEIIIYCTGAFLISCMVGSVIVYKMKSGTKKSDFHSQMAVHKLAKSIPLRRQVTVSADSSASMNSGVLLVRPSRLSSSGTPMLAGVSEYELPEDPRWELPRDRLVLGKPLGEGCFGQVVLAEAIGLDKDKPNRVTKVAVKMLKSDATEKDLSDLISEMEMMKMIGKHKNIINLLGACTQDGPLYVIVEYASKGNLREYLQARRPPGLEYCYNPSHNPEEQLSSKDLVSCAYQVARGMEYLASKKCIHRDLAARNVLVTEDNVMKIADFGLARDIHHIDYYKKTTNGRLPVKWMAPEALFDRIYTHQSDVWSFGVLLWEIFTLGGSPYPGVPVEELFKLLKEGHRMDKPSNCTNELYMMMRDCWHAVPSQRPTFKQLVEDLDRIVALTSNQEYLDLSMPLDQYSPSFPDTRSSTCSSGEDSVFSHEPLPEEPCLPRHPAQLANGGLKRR

[10] = molecular target: panel of 468 diverse kinases (Homo sapiens, UniProt P14616); settings: INSRR; 1000 nM; read-out: Percent Control
[11] = molecular target: panel of 468 diverse kinases (Homo sapiens, UniProt P29317); settings: EPHA2; 1000 nM; read-out: Percent Control
[12] = molecular target: panel of 468 diverse kinases (Homo sapiens, UniProt P31152); settings: ERK4; 1000 nM; read-out: Percent Control
[13] = molecular target: panel of 468 diverse kinases (Homo sapiens, UniProt P36888, K663Q); settings: FLT3(K663Q); 1000 nM; read-out: Percent Control
[14] = molecular target: panel of 468 diverse kinases (Homo sapiens, UniProt P42680); settings: TEC; 1000 nM; read-out: Percent Control
[15] = molecular target: panel of 468 diverse kinases (Homo sapiens, UniProt P46734); settings: MEK3; 1000 nM; read-out: Percent Control
[16] = molecular target: panel of 468 diverse kinases (Homo sapiens, UniProt P49761); settings: CLK3; 1000 nM; read-out: Percent Control
[17] = molecular target: panel of 468 diverse kinases (Homo sapiens, UniProt P50613); settings: CDK7; 1000 nM; read-out: Percent Control
panel of 468 diverse kinases (Homo sapiens, UniProt P50613), sequence (P50613 2-346 limits assumed): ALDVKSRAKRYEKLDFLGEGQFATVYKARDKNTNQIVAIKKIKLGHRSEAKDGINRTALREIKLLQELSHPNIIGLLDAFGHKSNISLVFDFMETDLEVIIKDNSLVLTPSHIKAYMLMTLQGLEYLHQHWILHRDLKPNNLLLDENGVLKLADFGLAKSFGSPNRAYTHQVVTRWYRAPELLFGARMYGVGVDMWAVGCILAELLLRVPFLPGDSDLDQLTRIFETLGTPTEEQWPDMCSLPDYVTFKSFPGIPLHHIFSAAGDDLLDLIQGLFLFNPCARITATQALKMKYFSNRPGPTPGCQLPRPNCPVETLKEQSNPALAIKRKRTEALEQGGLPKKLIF

[18] = molecular target: panel of 468 diverse kinases (Homo sapiens, UniProt P51817); settings: PRKX; 1000 nM; read-out: Percent Control
[19] = molecular target: panel of 468 diverse kinases (Homo sapiens, UniProt P78368); settings: CSNK1G2; 1000 nM; read-out: Percent Control
[20] = molecular target: panel of 468 diverse kinases (Homo sapiens, UniProt Q00537); settings: PCTK2; 1000 nM; read-out: Percent Control
[21] = molecular target: panel of 468 diverse kinases (Homo sapiens, UniProt Q12851); settings: MAP4K2; 1000 nM; read-out: Percent Control
[22] = molecular target: panel of 468 diverse kinases (Homo sapiens, UniProt Q59H18); settings: TNNI3K; 1000 nM; read-out: Percent Control
[23] = molecular target: panel of 468 diverse kinases (Homo sapiens, UniProt Q8IYT8); settings: ULK2; 1000 nM; read-out: Percent Control
[24] = molecular target: panel of 468 diverse kinases (Homo sapiens, UniProt Q8NI60); settings: ADCK3; 1000 nM; read-out: Percent Control
panel of 468 diverse kinases (Homo sapiens, UniProt Q8NI60), sequence (Q8NI60 163-647 limits assumed): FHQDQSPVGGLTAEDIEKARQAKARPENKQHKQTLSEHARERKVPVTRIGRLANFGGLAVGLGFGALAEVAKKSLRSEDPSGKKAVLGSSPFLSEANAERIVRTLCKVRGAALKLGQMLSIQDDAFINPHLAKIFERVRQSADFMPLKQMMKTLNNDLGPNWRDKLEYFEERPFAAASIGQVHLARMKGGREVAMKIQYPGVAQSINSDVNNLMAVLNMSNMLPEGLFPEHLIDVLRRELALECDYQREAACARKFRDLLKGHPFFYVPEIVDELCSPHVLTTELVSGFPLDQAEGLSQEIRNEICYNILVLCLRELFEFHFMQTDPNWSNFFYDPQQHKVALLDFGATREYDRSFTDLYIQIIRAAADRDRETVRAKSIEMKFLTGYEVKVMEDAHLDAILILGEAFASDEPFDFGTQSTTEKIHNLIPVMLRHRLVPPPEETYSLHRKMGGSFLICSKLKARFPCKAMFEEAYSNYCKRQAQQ

[25] = molecular target: panel of 468 diverse kinases (Homo sapiens, UniProt Q8TD08); settings: ERK8; 1000 nM; read-out: Percent Control
[26] = molecular target: panel of 468 diverse kinases (Homo sapiens, UniProt Q9BX84); settings: TRPM6; 1000 nM; read-out: Percent Control
[27] = molecular target: panel of 468 diverse kinases (Homo sapiens, UniProt Q9BXA7); settings: TSSK1B; 1000 nM; read-out: Percent Control
[28] = molecular target: panel of 468 diverse kinases (Homo sapiens, UniProt Q9NRM7); settings: LATS2; 1000 nM; read-out: Percent Control
[29] = molecular target: panel of 468 diverse kinases (Homo sapiens, UniProt Q9UHD2); settings: TBK1; 1000 nM; read-out: Percent Control
[30] = molecular target: panel of 468 diverse kinases (Homo sapiens, UniProt Q9UKI8); settings: TLK1; 1000 nM; read-out: Percent Control
[31] = molecular target: panel of 468 diverse kinases (Homo sapiens, UniProt Q9Y5S2); settings: MRCKB; 1000 nM; read-out: Percent Control

Compound: COc1cc2nc(NC3CC3)nc(NC3CCN(C(C)C)CC3)c2cc1OC [Formula IV]
- remaining activity at 1 µM [1]: 60%
- remaining activity at 1 µM [2]: 51%
- remaining activity at 1 µM ([3]; RPS6KA4(Kin.Dom.1-N-terminal)): 90%
- remaining activity at 1 µM ([3]; RPS6KA4(Kin.Dom.2-C-terminal)): 46%
- remaining activity at 1 µM [4]: 83%
- remaining activity at 1 µM [5]: 100%
- remaining activity at 1 µM [6]: 97%
- remaining activity at 1 µM [7]: 96%
- remaining activity at 1 µM ([8]; KIT-autoinhibited): 57%
- remaining activity at 1 µM ([8]; KIT): 95%
- remaining activity at 1 µM [9]: 100%
- remaining activity at 1 µM [10]: 86%
- remaining activity at 1 µM [11]: 100%
- remaining activity at 1 µM [12]: 91%
- remaining activity at 1 µM [13]: 98%
- remaining activity at 1 µM [14]: 100%
- remaining activity at 1 µM [15]: 66%
- remaining activity at 1 µM [16]: 91%
- remaining activity at 1 µM [17]: 69%
- remaining activity at 1 µM [18]: 100%
- remaining activity at 1 µM [19]: 86%
- remaining activity at 1 µM [20]: 94%
- remaining activity at 1 µM [21]: 87%
- remaining activity at 1 µM [22]: 96%
- remaining activity at 1 µM [23]: 59%
- remaining activity at 1 µM [24]: 100%
- remaining activity at 1 µM [25]: 83%
- remaining activity at 1 µM [26]: 90%
- remaining activity at 1 µM [27]: 85%
- remaining activity at 1 µM [28]: 95%
- remaining activity at 1 µM [29]: 98%
- remaining activity at 1 µM [30]: 90%
- remaining activity at 1 µM [31]: 92%
